The values below come from patent publication US20250215017A1, “TGF-ß INHIBITOR COMPOUND AND USE THEROF” (Medinno Pharmaceutical Technology (Zhuhai) Co., Ltd., priority 2022, published 2025).

Chain of human TGFβR1 (P36897 34-503): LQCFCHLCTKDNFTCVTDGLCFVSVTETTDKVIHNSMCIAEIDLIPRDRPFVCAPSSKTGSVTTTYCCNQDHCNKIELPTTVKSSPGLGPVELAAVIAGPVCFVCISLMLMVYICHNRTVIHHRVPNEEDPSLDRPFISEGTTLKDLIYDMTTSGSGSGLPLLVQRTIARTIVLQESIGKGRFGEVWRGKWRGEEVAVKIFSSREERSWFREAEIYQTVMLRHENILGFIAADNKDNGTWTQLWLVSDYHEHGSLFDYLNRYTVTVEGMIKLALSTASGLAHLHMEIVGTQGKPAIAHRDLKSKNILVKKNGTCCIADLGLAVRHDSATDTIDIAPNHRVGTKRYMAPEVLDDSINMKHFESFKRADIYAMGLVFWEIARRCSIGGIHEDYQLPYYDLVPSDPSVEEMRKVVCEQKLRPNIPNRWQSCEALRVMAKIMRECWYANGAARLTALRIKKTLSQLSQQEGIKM

The experiment concerns the target human TGFβR1 (Homo sapiens (Human), UniProt P36897). Kind of experiment: ADP-Glo kinase activity assay: TGFβR1 phosphorylates TGFβR1tide. In kind it is biochemical. The note with it: ATP 5 uM, TGFβR1 0.5 ng/ul, TGFβR1tide 0.1 ug/ul, 60 minutes at room temperature. The method, then: The principle of the activity assay was that TGFβR1 phosphorylates the substrate TGFβR1tide, consuming ATP in the process. This experiment employed the ADP-Glo method to detect kinase activity and determine the IC50 value, which was used to evaluate the inhibitory ability of the test compounds against human TGFβR1. In the experiment, DSM was used as a negative control, and LY364947 was used as a positive control. The specific experimental steps were as follows. Compounds were diluted 4-fold in DMSO in a dilution plate, with the final starting concentration of the compounds being 10 μM, across 10 concentration gradient points. The compounds were then further diluted 50-fold into the kinase reaction buffer and incubated on a shaker for 20 minutes. Kinase was formulated with an enzyme reaction buffer. 2 μl kinase was added to each well of the reaction plate. 1 μl of the compound diluted in buffer was added to each well, and then the plate was sealed with a sealing membrane and centrifuged at 1000 g for 30 seconds, leaving it at room temperature for 10 minutes. Solutions of TGFβR1tide and ATP were prepared with the kinase reaction buffer, and 2 μL of the TGFβR1tide/ATP solution was added to the reaction plate. The plate was sealed with a sealing film and centrifuged at 1000 g for 30 seconds. It was allowed to react at room temperature for 60 minutes. Subsequently, 4 μL of ADP-Glo was transferred to a 384-well reaction plate and centrifuged at 1000 rpm/min for 1 minute, followed by incubation at 25° C. for 40 minutes. Then, 8 μL of Detection solution was transferred to the 384-well reaction plate and centrifuged at 1000 rpm/min for 1 minute, after which it was incubated at 25° C. for 40 minutes. The RLU (Relative Luminescence Unit) signal was read using a BMG microplate reader, which was used to characterize the degree of kinase activity.
3.1 The inhibition rate was calculated as follows: inhibition rate of compound (% inh)=100%−(compound−positive control)/(negative control−positive control)*100%.
The IC50 (half inhibition concentration) of a compound was obtained using the following non-linear fitting equation, wherein data analysis was performed using Graphpad 7.0 software.
• 3.3.1 After an experimenter completed the report writing, another experimenter conducted a second inspection to ensure the accuracy of data analysis. • 3.3.2 Data were exported from BMG and analyzed manually. • 3.3.2.1 The ratios were converted to inhibition rates and IC50 was calculated by Prism GraphPad 7.0 from the inhibition rates. • 3.3.2.2 IC50 was calculated again by the ratios to verify accuracy of the results.
Background: In ADP-Glo the light output rises with the ADP produced.
With `Cc1cccc(-c2nc3n(c2-c2ccn4nccc4c2)CC2CC32)n1` (stereo not drawn) [Compound 36, 2-(6-Methylpyridin-2-yl)-3-(pyrazolo[1,5-a]pyridin-5-yl)-5,5a,6,6a-tetrahydrocyclopropyl[3,4]pyrrolo[1,2-a]imidazole], the IC50 (in general, the point on the concentration scale where inhibition reaches its midpoint) was 13 nM. This lies in the double-digit nanomolar range.

`Cc1cccc(-c2nc3n(c2-c2ccnc(-c4nc5c([nH]4)CNC5)c2)CC2CC32)n1` (stereo not drawn) [Compound 8, 2-(6-Methylpyridin-2-yl)-3-(2-(1,4,5,6-tetrahydropyrrolo[3,4-d]imidazol-2-yl)pyridin-4-yl)-5,5a,6,6a-tetrahydrocyclopropane[3,4]pyrrolo[1,2-a]imidazole] came in with an IC50 of 22 nM.

Take `Cc1cccc(-c2nc3n(c2-c2ccc4ncnn4c2)CC2CC32)n1` (stereo not drawn) [Compound 18, 3-([1,2,4]Triazolyl[1,5-a]pyridin-6-yl)-2-(6-methylpyridin-2-yl)-5,5a,6,6a-tetrahydrocyclopropane[3,4]pyrrolo[1,2-a]imidazole]: 5.6 nM corresponded to half-maximal inhibition (IC50). Compared with the last molecule, the IC50 is about 3.9-fold lower.

`Cc1cccc(-c2nc3n(c2-c2ccc4nccn4c2)CC2CC32)n1` (stereo not drawn) [Compound 19, 3-(Imidazolo[1,2-a]pyridin-6-yl)-2-(6-methylpyrridin-2-yl)-5,5a,6,6a-tetrahydrocyclopropane[3,4]pyrrolo[1,2-a]imidazole] had an IC50 of 50 nM.

Molecule `Cc1cccc(-c2nc3n(c2-c2ccc4ncsc4c2)CC2CC32)n1` (stereo not drawn) [Compound 21, 6-(2-(6-Methylpyridin-2-yl)-5,5a,6,6a-tetrahydrocyclopropane[3,4]pyrrolo[1,2-a]imidazol-3-yl)benzo[d]thiazole] had an IC50 of 6 nM.

`Cc1cccc(-c2nc3n(c2-c2ccc4ncoc4c2)CC2CC32)n1` (stereo not drawn) [Compound 20, 6-(2-(6-Methylpyridin-2-yl)-5,5a,6,6a-tetrahydrocyclopropane[3,4]pyrrolo[1,2-a]imidazol-3-yl)benzo[d]oxazole] displayed an IC50 of 38 nM.

For `Cc1cccc(-c2nc3n(c2-c2ccc4ncn(C)c4c2)CC2CC32)n1` (stereo not drawn) [Compound 16, 3-(1-Methyl-1H-benzo[d]imidazol-6-yl)-2-(6-methylpyridin-2-yl)-5,5a,6,6a-tetrahydrocyclopropane[3,4]pyrrolo[1,2-a]imidazole], the IC50 came to 4.9 nM. Against the preceding molecule, the IC50 is about 7.8-fold lower.

Turning to `Cc1cccc(-c2nc3n(c2-c2ccc4nc[nH]c4c2)CC2CC32)n1` (stereo not drawn) [Compound 35, 3-(1H-Benzo[d]imidazol-6-yl)-2-(6-methylpyridin-2-yl)-5,5a,6,6a-tetrahydrocyclopropyl[3,4]pyrrolo[1,2-a]imidazole], half-maximal inhibition (IC50) was put at 12 nM.

On to `Cc1cccc(-c2nc3n(c2-c2ccc4[nH]ncc4c2)CC2CC32)n1` (stereo not drawn) [Compound 5, 3-(1H-Indazol-5-yl)-2-(6-methylpyridin-2-yl)-5,5a,6,6a-tetrahydrocyclopropane[3,4]pyrrolo[1,2-a]imidazole], for which the IC50 came to 15 nM.
